According to patent publication US3966896A, “Radioimmunoassay for plasma renin activity” (Mallinckrodt, Inc., priority 1974, dated 1976):
Values joined by “and” are separate entries in the source; they are usually repeats but may differ in a detail not shown here. Equal values may be shown once.

Columns and labels:
[1] = tested on: antibody for angiotensin I; test: Radioimmunoassay standard reactions: competitive binding of labeled and unlabeled angiotensin I to antibody; design: species or system rabbit
Protocol: Antiserum (Rabbit) 1.4 μl
A series of standard prereaction mixtures was prepared by transferring 0.1 ml aliquots of standard unlabeled angiotensin I solutions from the standard vials to a series of reaction vials. Standard prereaction mixtures were prepared using the standard solutions containing 6, 3, 2, 1, 0.8, 0.6, and 0.3 ng/ml unlabeled angiotensin I, respectively. Two blank prereaction mixtures were prepared by adding 0.1 ml pH 9.0 buffer to a reaction vial.
Reaction mixtures were prepared and radioimmunoassay commenced by adding antiserum solution (0.1 ml) to each of the base unknown, generated unknown, standard, and blank prereaction mixtures. Antiserum was withheld from one reaction vial used as a control. The reaction mixtures contained in each vial were then mixed gently on a vortex and incubated for 1 hour at 37°C. After incubation was completed, each reaction vial was taken out of the water bath, the cap removed and an anion exchange resin strip immersed in the contents of the vial. The vial was then recapped and placed on a rotator for 30 minutes at room temperature (21°-23°C.). At the end of 30 minutes, the resin strip was removed from each vial and placed in an empty vial. Radioactivity of both the strip containing the unbound ("free") angiotensin I and the supernatant liquid containing the antibody bound ("bound") angiotensin I was counted, and the percentage bound angiotensin I was determined from the following relationship: [formula]
From the data of Tables I and II, a graph was prepared in which the percent bound angiotensin I was plotted against nanograms of unlabeled standard angiotensin I contained in the standard reaction solutions for the two sets of standard reactions. FIG. 1 is that graph. […]
Standard radioimmunoassay reactions were carried out using duplicate blanks and standard solutions respectively containing 0.03, 0.06, 0.08, 0.1, 0.2, 0.3 and 0.6 ng. unlabeled angiotensin I per ml. A control was also run in which no antiserum was added to the prereaction mixture. The procedure of Example 2 was followed, except that the temperature and period of incubation of the radioimmunoassay reaction were varied. The following combinations of time and temperature were utilized for these standard radioimmunoassay reactions: […]

angiotensinogen = test: Plasma renin activity, as angiotensin I generation rate; format: biochemical, human
Protocol: Blood was drawn from patient three into a tube coated with EDTA and the plasma separated by centrifugation and cooled to 4°C. To one ml. of the cold plasma were added portions of 8-hydroxyquinoline inhibiting solution (10 μl) and dimercaprol inhibiting solution (10 μl). The resulting unknown plasma sample was transferred to a generation vial containing generation buffer solution and mixed.
The generation vial was placed in a water bath controlled at 37°C. and generation was carried out for 3 hours. At the end of this time, the generated unknown sample was removed from the water bath, cooled in an ice bath, and three 100 μl aliquots thereof transferred to three reaction vials to provide three generated unknown radioimmunoassay prereaction mixtures containing generated plasma, human serum albumin, sodium azide preservative, HCl, and ^125 I labeled angiotensin I.
The renin activity of patient three's plasma was indicated by the angiotensin I generation rate determined from the following relationship: [formula] The factor of 30 is used because the plasma is initially diluted three-fold, and only 0.1 ml of the dilute plasma is used in the radioimmunoassay, while the angiotensin I generation rate is based on 1 ml.
Another sample of patient three's plasma was assayed in the manner described in Example 2, except that 2,2-dimethyl glutaric acid was used in place of potassium acid phthalate as the buffering component of the generation mixture. Results of radioactivity counting on the base and generated radioimmunoassay reaction mixtures obtained in the assay of this example are set forth in Table IV.
Following the procedure described in Example 2, a renin activity radioimmunoassay was conducted on the plasma of patient two. The results of radioactive counting and the percent bound antigen for the duplicate standard radioimmunoassay reaction mixture are set forth in Tables V and VI.
Another sample of patient two's plasma was assayed in the manner described in Example 4, except that 2,2-dimethylglutaric acid was used in place of potassium acid phthalate as a buffering component of the generation mixture. Results of radioactive counting on the base and generated radioimmunoassay mixtures obtained in the assay of this example are set forth in Table VIII.
A renin activity radioimmunoassay was conducted on the plasma of patient one. The procedure described in Example 2 was followed except that only one set of reactions was carried out in establishing the standard curve. Results of radioactive counting and the percent bound antigen for the standard radioimmunoassay reaction mixtures are set forth in Table IX.
Another sample of patient one's plasma was assayed in the manner described in Example 6, except that 2,2-dimethylglutaric acid was used in place of potassium acid phthalate as the buffering component of the generation mixture. Results of radioactivity counting on the base and generated radioimmunoassay reaction mixtures, together with the angiotensin I content of the ungenerated and generated samples, are set forth in Table XI.

Angiotensin I: decapeptide formed from angiotensinogen by renin; unlabeled standard in the radioimmunoassay (DRVYIHPFHL; Angiotensin-1; UniProt P01019 25-34, looked up)
% Bound labeled angiotensin I ([1]; 0.03 ng unlabeled angiotensin I standard, 12°C, 1 hour): 38.3%
% Bound labeled angiotensin I ([1]; 0.03 ng unlabeled angiotensin I standard, 12°C, 5 hours): 60.8%
% Bound labeled angiotensin I ([1]; 0.03 ng unlabeled angiotensin I standard, 20°C, 1 hour): 46.52%
% Bound labeled angiotensin I ([1]; 0.03 ng unlabeled angiotensin I standard, 20°C, 5 hours): 64.22%
% Bound labeled angiotensin I ([1]; 0.03 ng unlabeled angiotensin I standard, 37°C, 1 hour): 56.33% and 55.20% and 54.06% and 54.27% and 56.75% and 54.34%
% Bound labeled angiotensin I ([1]; 0.06 ng unlabeled angiotensin I standard, 12°C, 1 hour): 36.6%
% Bound labeled angiotensin I ([1]; 0.06 ng unlabeled angiotensin I standard, 12°C, 5 hours): 52.9%
% Bound labeled angiotensin I ([1]; 0.06 ng unlabeled angiotensin I standard, 20°C, 1 hour): 43.88%
% Bound labeled angiotensin I ([1]; 0.06 ng unlabeled angiotensin I standard, 20°C, 5 hours): 62.08%
% Bound labeled angiotensin I ([1]; 0.06 ng unlabeled angiotensin I standard, 37°C, 1 hour): 50.77% and 53.62% and 49.30% and 49.16% and 52.76% and 49.86%
% Bound labeled angiotensin I ([1]; 0.08 ng unlabeled angiotensin I standard, 12°C, 1 hour): 34.7%
% Bound labeled angiotensin I ([1]; 0.08 ng unlabeled angiotensin I standard, 12°C, 5 hours): 50.4%
% Bound labeled angiotensin I ([1]; 0.08 ng unlabeled angiotensin I standard, 20°C, 1 hour): 37.90%
% Bound labeled angiotensin I ([1]; 0.08 ng unlabeled angiotensin I standard, 20°C, 5 hours): 53.73%
% Bound labeled angiotensin I ([1]; 0.08 ng unlabeled angiotensin I standard, 37°C, 1 hour): 49.01% and 48.63% and 48.16% and 48.27% and 48.93% and 45.64%
% Bound labeled angiotensin I ([1]; 0.1 ng unlabeled angiotensin I standard, 12°C, 1 hour): 34.3%
% Bound labeled angiotensin I ([1]; 0.1 ng unlabeled angiotensin I standard, 12°C, 5 hours): 47.5%
% Bound labeled angiotensin I ([1]; 0.1 ng unlabeled angiotensin I standard, 20°C, 1 hour): 40.23%
% Bound labeled angiotensin I ([1]; 0.1 ng unlabeled angiotensin I standard, 20°C, 5 hours): 50.27%
% Bound labeled angiotensin I ([1]; 0.1 ng unlabeled angiotensin I standard, 37°C, 1 hour): 45.93% and 45.19% and 45.21% and 43.12% and 46.72% and 42.96%
% Bound labeled angiotensin I ([1]; 0.2 ng unlabeled angiotensin I standard, 12°C, 1 hour): 27.2%
% Bound labeled angiotensin I ([1]; 0.2 ng unlabeled angiotensin I standard, 12°C, 5 hours): 34.1%
% Bound labeled angiotensin I ([1]; 0.2 ng unlabeled angiotensin I standard, 20°C, 1 hour): 31.21%
% Bound labeled angiotensin I ([1]; 0.2 ng unlabeled angiotensin I standard, 20°C, 5 hours): 32.23%
% Bound labeled angiotensin I ([1]; 0.2 ng unlabeled angiotensin I standard, 37°C, 1 hour): 35.75% and 35.05% and 29.50% and 28.39% and 34.97% and 30.79%
% Bound labeled angiotensin I ([1]; 0.3 ng unlabeled angiotensin I standard, 12°C, 1 hour): 25.8%
% Bound labeled angiotensin I ([1]; 0.3 ng unlabeled angiotensin I standard, 12°C, 5 hours): 24.4%
% Bound labeled angiotensin I ([1]; 0.3 ng unlabeled angiotensin I standard, 20°C, 1 hour): 23.71%
% Bound labeled angiotensin I ([1]; 0.3 ng unlabeled angiotensin I standard, 20°C, 5 hours): 25.25%
% Bound labeled angiotensin I ([1]; 0.3 ng unlabeled angiotensin I standard, 37°C, 1 hour): 29.47% and 31.32% and 28.06% and 26.30% and 27.55% and 27.52%
% Bound labeled angiotensin I ([1]; 0.6 ng unlabeled angiotensin I standard, 12°C, 1 hour): 15.9%
% Bound labeled angiotensin I ([1]; 0.6 ng unlabeled angiotensin I standard, 12°C, 5 hours): 16.6%
% Bound labeled angiotensin I ([1]; 0.6 ng unlabeled angiotensin I standard, 20°C, 1 hour): 15.54%
% Bound labeled angiotensin I ([1]; 0.6 ng unlabeled angiotensin I standard, 20°C, 5 hours): 15.0%
% Bound labeled angiotensin I ([1]; 0.6 ng unlabeled angiotensin I standard, 37°C, 1 hour): 17.21% and 16.50% and 17.98% and 17.40% and 17.61% and 16.72%

B1: Renin: proteolytic enzyme secreted by juxtaglomerular cells in the kidney (protein, UniProt P00797 67-406, looked up)
Renin: LTLGNTTSSVILTNYMDTQYYGEIGIGTPPQTFKVVFDTGSSNVWVPSSKCSRLYTACVYHKLFDASDSSSYKHNGTELTLRYSTGTVSGFLSQDIITVGGITVTQMFGEVTEMPALPFMLAEFDGVVGMGFIEQAIGRVTPIFDNIISQGVLKEDVFSFYYNRDSENSQSLGGQIVLGGSDPQHYEGNFHYINLIKTGVWQIQMKGVSVGSSTLLCEDGCLALVDTGASYISGSTSSIEKLMEALGAKKRLFDYVVKCNEGPTLPDISFHLGGKEYTLTSADYVFQESYSSKKLCTLAIHAMDIPPPTGPTWALGATFIRKFYTEFDRRNNRIGFALAR
Renin activity (angiotensinogen; patient one plasma, glutarate generation buffer): 1.31 ng/mL/h
Renin activity (angiotensinogen; patient one plasma, phthalate generation buffer): 0.849 ng/mL/h
Renin activity (angiotensinogen; patient three plasma, glutarate generation buffer): 0.7 ng angiotensin I/ml/hr
Renin activity (angiotensinogen; patient three plasma, phthalate generation buffer): 0.42 ng/mL/h
Renin activity (angiotensinogen; patient two plasma, glutarate generation buffer): 2.91 ng/mL/h
Renin activity (angiotensinogen; patient two plasma, phthalate generation buffer): 1.41 ng Angiotensin I/ml/hr
